Reference: patent US12421282B2, “Compositions and methods for the treatment of metabolic and liver disorders” (priority 2021, dated 2025)
Where two headings read alike, the source gives them in different places. *1 amine or outer side, *2 acyl side, *3 side chain or, on linkers, in order; H or OH if unused. Where a SMILES comes first, the peptide text is derived from it. Side-chain parts run from the residue outwards. [ ]: non-standard residue; d: D form. The star is where a group is joined. Nonadecanoyl(19-PO3H2) = O=C(CCCCCCCCCCCCCCCCCCP(=O)(O)O)*; γGlu = O=C(O)[C@H](CCC(=O)[*:2])N[*:1]; AEEA = NCCOCCOCC(=O)O; Aib = CC(C)(N)C(=O)O

Experiments:
[1] = target: human recombinant GLP-1 receptor (Homo sapiens, UniProt P43220); assay: TagLite binding assay, GLP-1 receptor, without and with 2% HSA
From the text: (§1) Binding data for Compounds 15-25, for two human recombinant G protein coupled receptors, GLP-1 and GIP, was obtained using […]® binding assay and Epics Therapeutics cell lines. The binding assay was repeated in the presence of 2% human serum albumin (HSA). Compounds 16, 21, and 22 have an HSA ratio for the GLP-1 receptor of 7.1, 7.6, and 7.8, respectively. Compounds 15, 18, and 23 have an HSA ratio for the GIP receptor of 7.3, 4.3, and 6.4, respectively. A lower HSA ratio indicates greater binding affinity for the receptor than for albumin when compared to a compound with a greater HSA ratio.

[2] = target: T1, human recombinant GIP receptor (Homo sapiens, UniProt P48546); assay: TagLite binding assay, GIP receptor, without and with 2% HSA
T1 sequence (P48546 22-466): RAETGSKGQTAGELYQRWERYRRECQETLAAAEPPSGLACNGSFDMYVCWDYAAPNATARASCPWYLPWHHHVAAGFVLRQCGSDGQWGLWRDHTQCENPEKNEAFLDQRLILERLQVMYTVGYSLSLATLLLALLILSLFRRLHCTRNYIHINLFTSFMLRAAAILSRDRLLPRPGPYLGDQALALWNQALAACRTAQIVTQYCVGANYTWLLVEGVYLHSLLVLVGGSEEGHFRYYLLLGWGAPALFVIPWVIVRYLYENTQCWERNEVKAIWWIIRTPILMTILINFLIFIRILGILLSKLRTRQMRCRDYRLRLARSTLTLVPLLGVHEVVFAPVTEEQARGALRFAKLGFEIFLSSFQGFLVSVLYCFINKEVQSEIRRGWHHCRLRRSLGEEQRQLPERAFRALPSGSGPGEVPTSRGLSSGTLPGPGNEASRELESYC
From the text: as §1

[3] = set-up: species or system cynomolgus monkeys; details: cynomolgus monkey, in vivo
Experimental: Subcutaneous (SC) dosing of the compounds in a vehicle of 0.1% bovine serum albumin in phosphate buffered saline solution was performed with male cynomolgus monkeys. […] Samples were obtained at 1, 4, 8, 12, 24, 48, 72, 96, 120, 168, 192, 240 and 336 hours after the single dose was administered.

human recombinant GLP-1 receptor, sequence (P43220 24-463): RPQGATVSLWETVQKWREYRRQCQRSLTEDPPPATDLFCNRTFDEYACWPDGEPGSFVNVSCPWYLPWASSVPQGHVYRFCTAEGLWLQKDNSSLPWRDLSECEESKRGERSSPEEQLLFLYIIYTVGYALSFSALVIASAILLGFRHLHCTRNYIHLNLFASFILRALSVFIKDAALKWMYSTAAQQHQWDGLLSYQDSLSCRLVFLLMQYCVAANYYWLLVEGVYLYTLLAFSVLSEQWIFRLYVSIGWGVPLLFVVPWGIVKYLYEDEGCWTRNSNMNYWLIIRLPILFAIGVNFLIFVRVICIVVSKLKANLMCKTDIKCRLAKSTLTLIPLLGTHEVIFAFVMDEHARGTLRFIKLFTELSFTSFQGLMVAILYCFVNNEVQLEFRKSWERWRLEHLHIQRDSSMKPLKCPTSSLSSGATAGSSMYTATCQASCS

## CC[C@H](C)[C@H](NC(=O)[C@H](CCCCN)NC(=O)[C@H](CC(=O)O)NC(=O)[C@H](CC(C)C)NC(=O)[C@H](Cc1ccccc1)NC(=O)[C@@H](NC(=O)[C@H](CO)NC(=O)[C@H](Cc1ccc(O)cc1)NC(=O)[C@H](CC(=O)O)NC(=O)[C@H](CO)NC(=O)[C@@H](NC(=O)[C@H](Cc1ccccc1)NC(=O)[C@@H](NC(=O)CNC(=O)[C@H](CCC(=O)O)NC(=O)C(C)(C)NC(=O)[C@@H](N)Cc1ccc(O)cc1)[C@@H](C)O)[C@@H](C)O)[C@@H](C)CC)C(=O)N[C@@H](C)C(=O)N[C@@H](CCC(N)=O)C(=O)N[C@@H](CCCCNC(=O)COCCOCCNC(=O)COCCOCCNC(=O)CC[C@H](NC(=O)CCCCCCCCCCCCCCCCCCP(=O)(O)O)C(=O)O)C(=O)N[C@@H](C)C(=O)N[C@@H](Cc1ccccc1)C(=O)N[C@H](C(=O)N[C@@H](CC(N)=O)C(=O)N[C@@H](Cc1c[nH]c2ccccc12)C(=O)N[C@@H](CC(C)C)C(=O)N[C@H](C(=O)N[C@@H](C)C(=O)NCC(=O)NCC(=O)N1CCC[C@H]1C(=O)N[C@@H](CO)C(=O)N[C@@H](CO)C(=O)NCC(=O)N[C@@H](C)C(=O)N1CCC[C@H]1C(=O)N1CCC[C@H]1C(=O)N1CCC[C@H]1C(=O)N[C@@H](CO)C(N)=O)[C@@H](C)CC)C(C)C [Compound 21] (H-Y[Aib]EGTFTSDYSIFLDKIAQK([AEEA-AEEA-γGlu-Nonadecanoyl(19-PO3H2)])AFVNWLIAGGPSSGAPPPS-NH2)
[1]; 2% human serum albumin, read-out: GLP-1 receptor IC50 2% HSA
  IC50: 1100 nM
[1]; no HSA, read-out: GLP-1 receptor IC50 No HSA
  IC50: 144 nM
[2]; 2% human serum albumin, read-out: GIP receptor IC50 2% HSA
  IC50: 5280 nM
[2]; no HSA, read-out: GIP receptor IC50 No HSA
  IC50: 561 nM
[3]; sc, 0.2 mg/kg
  AUC(0-inf): 54 µg·h/mL
  AUC(0-t): 49.4 µg·h/mL
  Cmax: 339 ng/mL
  Tmax: 48 h
  half-life: 3.77 days
  mean half life longer compared to tirzepatide: at least 50%

## CC[C@H](C)[C@H](NC(=O)[C@H](CC(C)C)NC(=O)[C@H](Cc1c[nH]c2ccccc12)NC(=O)[C@H](CCC(N)=O)NC(=O)[C@@H](NC(=O)[C@H](Cc1ccccc1)NC(=O)[C@H](C)NC(=O)[C@H](CCCCNC(=O)COCCOCCNC(=O)COCCOCCNC(=O)CC[C@H](NC(=O)CCCCCCCCCCCCCCCCCCP(=O)(O)O)C(=O)O)NC(=O)[C@H](CCC(N)=O)NC(=O)[C@H](C)NC(=O)[C@@H](NC(=O)[C@H](CCCNC(=N)N)NC(=O)[C@H](CC(=O)O)NC(=O)[C@H](CC(C)C)NC(=O)C(C)(C)NC(=O)[C@@H](NC(=O)[C@H](CO)NC(=O)[C@H](Cc1ccc(O)cc1)NC(=O)[C@H](CC(=O)O)NC(=O)[C@H](CO)NC(=O)[C@@H](NC(=O)[C@H](Cc1ccccc1)NC(=O)[C@@H](NC(=O)CNC(=O)[C@H](CCC(=O)O)NC(=O)C(C)(C)NC(=O)[C@@H](N)Cc1ccc(O)cc1)[C@@H](C)O)[C@@H](C)O)[C@@H](C)CC)[C@@H](C)CC)C(C)C)C(=O)N[C@@H](C)C(=O)NCC(=O)NCC(=O)N1CCC[C@H]1C(=O)N[C@@H](CO)C(=O)N[C@@H](CO)C(=O)NCC(=O)N[C@@H](C)C(=O)N1CCC[C@H]1C(=O)N1CCC[C@H]1C(=O)N1CCC[C@H]1C(=O)N[C@@H](CO)C(N)=O [Compound 16] (H-Y[Aib]EGTFTSDYSI[Aib]LDRIAQK([AEEA-AEEA-γGlu-Nonadecanoyl(19-PO3H2)])AFVQWLIAGGPSSGAPPPS-NH2)
[3]; sc, 0.2 mg/kg
  AUC(0-inf): 144 µg·h/mL
  AUC(0-t): 138 µg·h/mL
  Cmax: 1570 ng/mL
  Tmax: 9.33 h
  half-life: 2.92 days

## CC[C@H](C)[C@H](NC(=O)[C@H](CC(C)C)NC(=O)[C@H](Cc1c[nH]c2ccccc12)NC(=O)[C@H](CCC(N)=O)NC(=O)[C@@H](NC(=O)[C@H](Cc1ccccc1)NC(=O)[C@H](C)NC(=O)[C@H](CCCCNC(=O)COCCOCCNC(=O)COCCOCCNC(=O)CC[C@H](NC(=O)CCCCCCCCCCCCCCCCCCC(=O)O)C(=O)O)NC(=O)[C@H](CCC(N)=O)NC(=O)[C@H](C)NC(=O)[C@@H](NC(=O)[C@H](CCCCN)NC(=O)[C@H](CC(=O)O)NC(=O)[C@H](CC(C)C)NC(=O)C(C)(C)NC(=O)[C@@H](NC(=O)[C@H](CO)NC(=O)[C@H](Cc1ccc(O)cc1)NC(=O)[C@H](CC(=O)O)NC(=O)[C@H](CO)NC(=O)[C@@H](NC(=O)[C@H](Cc1ccccc1)NC(=O)[C@@H](NC(=O)CNC(=O)[C@H](CCC(=O)O)NC(=O)C(C)(C)NC(=O)[C@@H](N)Cc1ccc(O)cc1)[C@@H](C)O)[C@@H](C)O)[C@@H](C)CC)[C@@H](C)CC)C(C)C)C(=O)N[C@@H](C)C(=O)NCC(=O)NCC(=O)N1CCC[C@H]1C(=O)N[C@@H](CO)C(=O)N[C@@H](CO)C(=O)NCC(=O)N[C@@H](C)C(=O)N1CCC[C@H]1C(=O)N1CCC[C@H]1C(=O)N1CCC[C@H]1C(=O)N[C@@H](CO)C(N)=O [TRZ, Tirzepatide, reference compound]
[3]; sc, 0.2 mg/kg
  AUC(0-inf): 242 µg·h/mL
  AUC(0-t): 237 µg·h/mL
  Cmax: 2250 ng/mL
  Tmax: 40 h
  half-life: 2.38 days

## CC[C@H](C)[C@H](NC(=O)[C@H](CC(C)C)NC(=O)[C@H](Cc1c[nH]c2ccccc12)NC(=O)[C@H](CC(N)=O)NC(=O)[C@@H](NC(=O)[C@H](Cc1ccccc1)NC(=O)[C@H](C)NC(=O)[C@H](CCC(N)=O)NC(=O)[C@H](CCCCNC(=O)COCCOCCNC(=O)COCCOCCNC(=O)CC[C@H](NC(=O)CCCCCCCCCCCCCCCCCCP(=O)(O)O)C(=O)O)NC(=O)[C@H](C)NC(=O)[C@@H](NC(=O)[C@H](CCCCN)NC(=O)[C@H](CC(=O)O)NC(=O)[C@H](CC(C)C)NC(=O)C(C)(C)NC(=O)[C@@H](NC(=O)[C@H](CO)NC(=O)[C@H](Cc1ccc(O)cc1)NC(=O)[C@H](CC(=O)O)NC(=O)[C@H](CO)NC(=O)[C@@H](NC(=O)[C@H](Cc1ccccc1)NC(=O)[C@@H](NC(=O)CNC(=O)[C@H](CCC(=O)O)NC(=O)C(C)(C)NC(=O)[C@@H](N)Cc1ccc(O)cc1)[C@@H](C)O)[C@@H](C)O)[C@@H](C)CC)[C@@H](C)CC)C(C)C)C(=O)N[C@@H](C)C(=O)NCC(=O)NCC(=O)N1CCC[C@H]1C(=O)N[C@@H](CO)C(=O)N[C@@H](CO)C(=O)NCC(=O)N[C@@H](C)C(=O)N1CCC[C@H]1C(=O)N1CCC[C@H]1C(=O)N1CCC[C@H]1C(=O)N[C@@H](CO)C(N)=O [Compound 22] (H-Y[Aib]EGTFTSDYSI[Aib]LDKIAK([AEEA-AEEA-γGlu-Nonadecanoyl(19-PO3H2)])QAFVNWLIAGGPSSGAPPPS-NH2)
[3]; sc, 0.2 mg/kg
  AUC(0-inf): 510 µg·h/mL
  AUC(0-t): 417 µg·h/mL
  Cmax: 2380 ng/mL
  Tmax: 33.3 h
  half-life: 5.71 days
  mean half life as compared to tirzepatide (in words): more than twice an long as compared to tirzepatide
  mean half life longer compared to tirzepatide: at least 50%

## CC[C@H](C)[C@H](NC(=O)[C@H](CC(C)C)NC(=O)[C@H](Cc1c[nH]c2ccccc12)NC(=O)[C@H](CCC(N)=O)NC(=O)[C@@H](NC(=O)[C@H](Cc1ccccc1)NC(=O)[C@H](C)NC(=O)[C@H](CCCCNC(=O)COCCOCCNC(=O)COCCOCCNC(=O)CC[C@H](NC(=O)CCCCCCCCCCCCCCCCCCP(=O)(O)O)C(=O)O)NC(=O)[C@H](CCC(N)=O)NC(=O)[C@H](C)NC(=O)[C@@H](NC(=O)[C@H](CCCCN)NC(=O)[C@H](CC(=O)O)NC(=O)[C@H](CC(C)C)NC(=O)C(C)(C)NC(=O)[C@@H](NC(=O)[C@H](CO)NC(=O)[C@H](Cc1ccc(O)cc1)NC(=O)[C@H](CC(=O)O)NC(=O)[C@H](CO)NC(=O)[C@@H](NC(=O)[C@H](Cc1ccccc1)NC(=O)[C@@H](NC(=O)CNC(=O)[C@H](CCC(=O)O)NC(=O)C(C)(C)NC(=O)[C@@H](N)Cc1ccc(O)cc1)[C@@H](C)O)[C@@H](C)O)[C@@H](C)CC)C(C)C)C(C)C)C(=O)N[C@@H](CCCNC(=N)N)C(=O)NCC(=O)NCC(=O)N1CCC[C@H]1C(=O)N[C@@H](CO)C(=O)N[C@@H](CO)C(=O)NCC(=O)N[C@@H](C)C(=O)N1CCC[C@H]1C(=O)N1CCC[C@H]1C(=O)N1CCC[C@H]1C(=O)N[C@@H](CO)C(N)=O [Compound 25] (H-Y[Aib]EGTFTSDYSI[Aib]LDKVAQK([AEEA-AEEA-γGlu-Nonadecanoyl(19-PO3H2)])AFVQWLIRGGPSSGAPPPS-NH2)
[3]
  AUC(0-inf): 287 µg·h/mL
  AUC(0-t): 272 µg·h/mL
  Cmax: 1570 ng/mL
  Tmax: 24 h
  half-life: 4.88 days
